Laboratory results published in article PMC6382819, “Design strategy for serine hydroxymethyltransferase probes based on retro-aldol-type reaction” (Nature Communications, 2019).
Values belong to the compound of their own block, whether it stands above or below them.

Key:
hSHMT1 [1] = target: T1, hSHMT1 (Homo sapiens, UniProt P34896); assay: enzyme kinetics with recombinant hSHMT1 (UV absorption; […] NMR turnover); assay type: biochemical
T1 construct: gene SHMT1
T1 sequence (P34896 2-483): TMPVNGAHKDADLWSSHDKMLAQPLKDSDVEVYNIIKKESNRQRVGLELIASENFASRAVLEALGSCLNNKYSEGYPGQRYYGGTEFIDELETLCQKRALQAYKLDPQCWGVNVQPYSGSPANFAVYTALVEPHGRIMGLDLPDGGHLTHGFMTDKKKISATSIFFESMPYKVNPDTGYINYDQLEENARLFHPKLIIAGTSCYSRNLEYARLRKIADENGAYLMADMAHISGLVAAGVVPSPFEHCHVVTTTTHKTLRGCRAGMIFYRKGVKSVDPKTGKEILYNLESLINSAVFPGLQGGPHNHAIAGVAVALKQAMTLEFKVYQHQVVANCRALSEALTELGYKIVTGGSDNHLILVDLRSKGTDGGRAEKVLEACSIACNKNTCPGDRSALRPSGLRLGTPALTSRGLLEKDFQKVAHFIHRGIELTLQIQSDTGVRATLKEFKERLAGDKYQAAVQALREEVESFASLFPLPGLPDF

hSHMT1 [2] = target: T1, hSHMT1; assay: enzyme kinetics with recombinant hSHMT1 (retro-aldol turnover, fluorescence); assay type: biochemical
hSHMT1 [3] = target: T1, hSHMT1; assay: ITC; also DSF thermal shift and HPLC Ser-Gly conversion inhibition (IC50 […]); assay type: binding

Km (hSHMT1 [1]): 2750 ± 270 µM
SMILES: N[C@H](C(=O)O)[C@@H](O)c1ccc(F)cc1 [compound 2, 19F NMR probe 2]

Km (hSHMT1 [2]): 1810 ± 190 µM
SMILES: CN(C)c1ccc2cc([C@H](O)[C@H](N)C(=O)O)ccc2c1 [compound 1, fluorescent probe 1]

Kd (hSHMT1 [3]): 2000 nM
SMILES: O=C(O)CCC(=O)Nc1ccc(-c2ccnc(-c3ccc(NC(=O)CCC(=O)O)cc3)n2)cc1 [Hit 1]
